Measured values as given in a melting point compilation (Tetko et al.; mined from patent text by program, amines drawn as free bases though some values may be those of a salt).

Compound	melting point [°C]
CC(=O)CCc1ccc(C(=O)c2ccc(F)cc2)cc1	67 to 68
O=C(C(=O)c1cccnc1)c1ccccc1	56 to 57
CC=CCNc1cc(C(=O)O)cc(S(N)(=O)=O)c1Nc1ccc(N)cc1	208
OCc1ccc(CCc2ccncc2)cc1	163 to 166
COC(=O)C(=O)c1ccc(OC/C=C/c2ccc(F)cc2)cc1	84 to 85
C=Cn1cc(C(=O)O)c(=O)c2cc(F)c(N3CCC(NC)C3)nc21 (stereo unspecified)	160 to 161
N#Cc1cc(NC(=O)c2cc3ccccc3s2)ccc1N1CCC(CCO)CC1	218
CC(C)=CCN(c1ccc(OCc2ccccc2)cc1)C1CCN(C(=O)C2CN(C)CCN2CCC(C)C)CC1 (stereo unspecified)	85 to 86
OCc1cc(F)nc(F)c1F	48 to 49
CCN(C(=O)C1CC1)c1cnn2ccccc12	83 to 86
CC(=NNC(=N)N)c1cccc(OCc2ccc3ccccc3n2)c1	57 to 59
CC(C(=O)NCCN(C)C)c1cccc(C(=O)c2cc3ccsc3s2)c1 (stereo unspecified)	160
O=c1cc[nH]c2cn[nH]c12	> 320
CCNCCCCCC(C)O (stereo unspecified)	37 to 38
O=C(Oc1ccccc1)N1CCC2(CC1)SC(c1ccccc1F)c1ccccc12 (stereo unspecified)	122 to 123
Cc1cc2cc(CN3CCC(C(N)=O)CC3)cnc2cc1NC(=O)c1ccc(-c2ccc(F)cc2)cc1	265
Nc1ccc(C(O)c2ccccn2)cc1 (stereo unspecified)	139 to 140
C#Cc1c(-c2ccc(F)cc2)cc(C(c2ccccc2)c2ccccc2)nc1C(C)C	106 to 108
C[C@@H]1N=C(c2ccccc2Cl)c2cc(I)sc2NC1=O	235 to 237

Continued, values first:

melting point [°C]	Compound
152	CON=C(N)Nc1nccc(C)n1
212 to 214	COc1ccc2c(c1)CCC1CCNC(=O)C(CNC(C)C)=C21 (stereo unspecified)
258 to 260	CCc1c(NC(=O)c2ccc(-c3ccc(F)cc3)cc2)ccc2cc(CN3CCCC3)cnc12
78 to 81	Cc1ccccc1C(=O)NCC(C)O (stereo unspecified)
188 to 190	C[C@H]1[C@@H]2C(=O)N(Cc3ccccc3)C(=O)[C@@H]2[C@H](c2ccc(C#N)cc2)N1C (racemic)
152 to 157	COc1cc2c(cc1OC)CC(N(C)CCCN1CCc3cc4c(cc3CC1=O)OCCO4)CC2 (stereo unspecified)
191 to 193	Cn1cc(-c2cccc(C(F)(F)F)c2)c(=O)c(-c2ccccc2Cl)c1
165 to 167	N#Cc1c(Cl)cc(OCc2ccncc2)cc1OC(C(=O)O)c1ccccc1Cl (racemic)
138	OC1CSC(Oc2cccc(-c3ccco3)c2)C(O)C1O (stereo unspecified)
126 to 133	Cc1nc2c(OCc3ccccc3)nccn2c1N
252	CCn1cc(-c2ccc(O)cc2)nc1S
57 to 60	CCOC(=O)c1ccc(OCCOC)c(OC)c1
193 to 195	CC(c1ncccn1)C(O)(Cn1cncn1)c1ccc(F)cc1F (stereo unspecified)
203 to 205	COc1cccc([C@H]2O[C@H](CC(=O)Nc3ncc(CCC(=O)O)s3)C(=O)N(CC(C)(C)CO)c3ccc(Cl)cc32)c1OC
132	COC(=O)C(=O)Nc1ccc(-c2ccccc2S(=O)(=O)NC(C)(C)C)cc1
160 to 161	O=c1nc(-c2ccnc(-c3cccs3)c2)sc2ccccc12
150 to 151	CCOC(=O)[C@@H]([C@H](N)C(=O)O)[C@@H](C)O
> 250	CC(C)(O)c1ccc(-c2cnc3[nH]c(=O)n(CC4CCCCC4)c3n2)cn1
266 to 268	CCCn1c(=O)c2c(nc(C=Cc3cc(OC)c(OC)cc3S(N)(=O)=O)n2C)n(CCC)c1=O
135	Cc1ccc(CN2CCN(C3=NC4(C=CC(=O)C=C4)C(c4ccccc4)=C3)CC2)cc1
82 to 83	CCOC(=O)C(Cc1ccc(OC)c(OC)c1)NC(=O)c1ccccc1 (stereo unspecified)
73 to 74	Cc1cc(S(=O)(=O)NCC(C)c2ccccc2)ccc1Cl (stereo unspecified)
